Results published in article PMC10931745 (International Journal of Molecular Sciences, 2024).

Assays:
MCF-7 = assay: MTT cell viability assay; format: cell-based, human; conditions: 72 h
Experimental: (§1) The cell lines used were purchased from American Type Culture Collection (ATCC, Manassas, VA, USA). Human breast cancer cells MCF-7 and MDA-MB-231, human mammary epithelial cell line MCF-10A, and mouse BALB/3T3 embryonic fibroblasts were cultured as already described by some of us. The murine macrophage cell line RAW 264.7 was maintained in Dulbecco’s Modified Eagle’s Medium (DMEM) high glucose (4.5 g/L) supplemented with 10% Fetal Bovine Serum (FBS), 1% L-glutamine, and 100 units/mL of penicillin/streptomycin. The cell cultures were maintained at the temperature of 37 °C in a humidified atmosphere containing 5% CO2.
(§2) The 3-(4,5-dimethylthiazol-2-yl)-2,5-diphenyl-2H-tetrazolium bromide (MTT) assay (Sigma Aldrich (St. Louis, MO, USA)) was carried out to study the in vitro anticancer activities of the complexes, following the previously reported protocol. The cells were incubated for 72 h with different concentrations of the tested compounds (0.1, 1, 10, 25, 50, 100, and 500 µM) and the IC50 values were calculated from the percent (%) of control using the software GraphPad Prism 9 (GraphPad Software, La Jolla, CA, USA).

MDA-MB-231 = assay: MTT cell viability assay; format: cell-based, human; conditions: 72 h
Experimental: as §1, §2

[1] = system: human mammary epithelial cell line MCF-10A; assay: MTT assay, toxicity towards normal cells; format: cell-based; conditions: 72 h
Experimental: as §1, §2

[2] = system: ROS production in BALB/3T3 fibroblasts; assay: Intracellular ROS detection with DCFH2-DA; format: cell-based, murine; conditions: 25 µM, 24 h pre-treatment
Experimental: In vitro detection of intracellular ROS on fibroblasts BALB/3T3 using DCFH2-DA The assay to evaluate the in vitro antioxidant activity was carried out using the murine BALB/3T3 fibroblasts that were plated in a white 96 MW and then treated with the complexes at a concentration of 25 µM for 24 h. Menadione (25 µM) was then added for 15 min to induce ROS production. After treatment, the cells were washed with PBS and treated with 25 μM 2′-7′-dichlorofluorescein diacetate (DCFH2-DA, Sigma-Aldrich, St. Louis, MO, USA), and then they were incubated for 40 min at 37 °C and 5% CO2. The probe DCFH2-DA penetrates cells where it is […] into a non-fluorescent form (DCFH2) by endogenous esterases. In the presence of intracellular ROS, non-fluorescent H2DCF is oxidized to the fluorescent 2′,7′-dichlorofluorescein (DCF). Then, the cells were washed with PBS and the fluorescence was detected using a multiplate reader (λex = 485 nm, λem = 535 nm). Based on the obtained fluorescence values, the ROS production inhibition % (IROS) vs. menadione was calculated using the following formula:(1) IROS vs. Menadione (%)=FMen−FSample/FMen∗100 where FMen represents the mean fluorescence obtained after treatment with menadione alone and Fsample represents the mean fluorescence obtained after the co-treatment with the complexes and menadione.

[3] = ABTS radical scavenging assay; format: biochemical
Experimental: The radical scavenging properties of the complexes on a 2,20-azino-bis(3-ethylbenzothiazoline-6-sulfonate) radical cation (ABTS^+) were evaluated as previously described.
All the complexes were used at different concentrations (5, 10, 25, 50, and 100 µg/mL) and the ABTS radical scavenging activity, measured at 730 nm using a microplate reader, was expressed as inhibition percentages (%IABTS) compared tothe control, according to the following expression:(3) IABTS (%)=ABSCTRL−ABSsample/ABSCTRL∗100 where ABSCTRL and ABSsample are the absorbance at 730 nm in the control and in the presence of samples, respectively.
IC50 values were calculated from the %IABTS using GraphPad Prism 9 software (GraphPad Inc., San Diego, CA, USA). Trolox was employed as a positive control, while caffeine and theophylline were reference compounds.

[4] = DPPH radical scavenging assay; format: biochemical
Experimental: The radical scavenging properties of the complexes on the 1,1-diphenyl-2-picrylhydrazil (DPPH) radical were evaluated as previously described.
All the complexes were used at different concentrations (10, 25, 50, 100, and 200 µg/mL) and the DPPH radical scavenging activity, measured at 517 nm using a microplate reader, was expressed as inhibition percentages (%IDPPH) compared to the initial concentration of DPPH (control) according to the following expression:(2) IDPPH (%)=ABSCTRL−ABSsample/ABSCTRL∗100 where ABSCTRL and ABSsample are the absorbance at 517 nm in the control and in the presence of samples, respectively.
The obtained IDPPH percentages allowed us to calculate the IC50 values using Graph-Pad Prism 9 software (GraphPad Inc., San Diego, CA, USA). Trolox was employed as a positive control, while caffeine and theophylline were reference compounds.

[5] = system: Escherichia coli (ATCC 25922); assay: MIC/MBC broth dilution; format: cell-based
Experimental: (§3) The bacterial strains used for MIC and MBC value determinations expressed as µg/mL by the broth dilution method, according to CLSI guidelines, were the following:
(§4) -4 Gram-negative: Escherichia coli (ATCC® 25922^TM) and Klebsiella pneumoniae (ATCC® 13883^TM);
(§5) Increasing concentrations of the complexes (50, 70, 100, 150, and 200 µg/mL) were incubated with bacteria plated in 96-well microplates at 37 °C overnight as already reported, and then bacterial growth was checked at a wavelength of 600 nm using a Multiskan spectrophotometer (model Multiskan Ex Microplate; Thermo Scientific, Nyon, Switzerland). MIC or MBC values were obtained by comparing cell density with a positive control (bacterial cells grown in LB medium were added with only the vehicle, DMSO). The results were representative of three independent experiments performed in triplicate. Ampicillin, Gentamicin, and Cephalosporin (Sigma Aldrich A9393) were used as the control for strain sensitivity.

[6] = system: Klebsiella pneumoniae (ATCC 13883); assay: MIC/MBC broth dilution; format: cell-based
Experimental: as §3, §4, §5

[7] = system: Enterococcus faecalis (ATCC 19433); assay: MIC/MBC broth dilution; format: cell-based
Experimental: as §3
(§6) -3 Gram-positive: Enterococcus faecalis (ATCC® 19433^TM), Staphylococcus aureus (ATCC® 23235^TM), and Staphylococcus epidermidis (ATCC® 14990™).
as §5

[8] = system: Staphylococcus aureus (ATCC 23235); assay: MIC/MBC broth dilution; format: cell-based
Experimental: as §3, §6, §5

[9] = system: Staphylococcus epidermidis (ATCC 14990); assay: MIC/MBC broth dilution; format: cell-based
Experimental: as §3, §6, §5

[10] = system: Pseudomonas aeruginosa (ATCC 15442); assay: MIC/MBC broth dilution; format: cell-based
Experimental: as §3
as §5, with “The results were representative of three independent experiments performed in triplicate.” left out

[11] = system: Salmonella typhimurium (ATCC 14028); assay: MIC/MBC broth dilution; format: cell-based
Experimental: as §3
as §5, with “The results were representative of three independent experiments performed in triplicate.” left out

Compound: 1,3,7-Trimethylxanthin-9-[(2-hydroxy-2-phenyl)ethyl-8-ylidene]Au(I) Acetate [AuL1OAc]
- IC50 (MCF-7): > 100 µM
- IC50 (MDA-MB-231): > 100 µM
- IC50 [1]: > 100 µM
- ROS level reduction vs. menadione [2]: ~54%
- IC50 [3]: > 500 µM
- IC50 [4]: > 500 µM
- M.I.C. E. coli [5]: >200 µg/mL
- M.I.C. K. pneumoniae [6]: >200 µg/mL
- M.I.C. E. faecalis [7]: >200 µg/mL
- M.I.C. S. aureus [8]: >200 µg/mL
- M.I.C. S. epidermidis [9]: >200 µg/mL
- M.I.C. P. aeruginosa [10]: >200 µg/mL
- M.I.C. S. typhimurium [11]: >200 µg/mL

Compound: CC(=O)[O][Ag-][c]1n(C)c2c(c(=O)n(C)c(=O)n2C)[n+]1CC(O)c1ccccc1 (racemic) [AgL1OAc, 1,3,7-Trimethylxanthin-9-[(2-hydroxy-2-phenyl)ethyl-8-ylidene]Ag(I) Acetate]
- IC50 (MCF-7): 39.6 ± 0.8 µM
- IC50 (MDA-MB-231): 32.3 ± 0.9 µM
- IC50 [1]: > 100 µM
- ROS level reduction vs. menadione [2]: about 61%
- IC50 [3]: 149.2 ± 0.7 µM
- IC50 [4]: > 500 µM
- M.B.C. E. coli [5]: > 150 µg/mL
- M.B.C. K. pneumoniae [6]: > 150 µg/mL
- M.I.C. K. pneumoniae [6]: 125 µg/mL
- M.B.C. E. faecalis [7]: > 200 µg/mL
- M.I.C. E. faecalis [7]: 150 µg/mL
- M.B.C. S. aureus [8]: > 150 µg/mL
- M.I.C. S. aureus [8]: 125 µg/mL
- M.B.C. S. epidermidis [9]: > 150 µg/mL
- M.I.C. S. epidermidis [9]: 125 µg/mL
- M.B.C. P. aeruginosa [10]: > 150 µg/mL
- M.I.C. P. aeruginosa [10]: 125 µg/mL
- M.B.C. S. typhimurium [11]: > 200 µg/mL
- M.I.C. S. typhimurium [11]: 150 µg/mL
